# Measured values published in PubChem BioAssay AID2060905 (Molecular Pharmacology Branch, DTP, NCI, 2025).
# System: 282377-053-R-J1-PDC complex spheroid viability
# Assay: Anticancer human tumor 282377-053-R-J1-PDC patient-derived colon adenocarcinoma cell line growth inhibition [RAS]
# Conditions: for IC50: curve of first compound; for viability, T/C: stronger effect = lower value
# Outline: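 Agents were tested in combination matrices in half-log decrements from a top concentration at or near clinical Cmax (10 microM if undetermined). Targets were multi-cell spheroids of tumour lines plus HUVEC and MSC stromal cells.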
# 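Also: spheroids exposed to agents for seven days before readout.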
# 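For viability, T/C in this document: luminescence viability as percent of DMSO vehicle control wells.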
compound,measurement,setting,value
CC(C)NCC(C(=O)N1CCN(c2ncnc3c2C(C)CC3O)CC1)c1ccc(Cl)cc1 (configuration not stated) + CCn1c(-c2cccnc2C(C)OC)c2c3cc(ccc31)N1CCOC(CC(NC(=O)C(C(C)C)N(C)C(=O)C3(F)CCN(C(=O)C#CC(C)(C)N(C)C)CC3)C(=O)N3CCCC(N3)C(=O)OCC(C)(C)C2)C1,IC50,second compound 0.000949 µM,> 10 µM
same,IC50,second compound 0.003 µM,> 10 µM
same,IC50,second compound 0.00949 µM,> 10 µM
same,IC50,second compound 0.03 µM,> 10 µM
same,IC50,second compound 0.0949 µM,> 10 µM
same,IC50,second compound 0.3 µM,> 10 µM
same,"viability, T/C","second compound 0.000949 µM, first compound 0.0316 µM",96.4%
same,"viability, T/C","second compound 0.000949 µM, first compound 0.1 µM",99.7%
same,"viability, T/C","second compound 0.000949 µM, first compound 0.316 µM",109%
same,"viability, T/C","second compound 0.000949 µM, first compound 1 µM",89.7%
same,"viability, T/C","second compound 0.000949 µM, first compound 3.16 µM",78.3%
same,"viability, T/C","second compound 0.000949 µM, first compound 10 µM",70.6%
same,"viability, T/C","second compound 0.003 µM, first compound 0.0316 µM",104%
same,"viability, T/C","second compound 0.003 µM, first compound 0.1 µM",96.5%
same,"viability, T/C","second compound 0.003 µM, first compound 0.316 µM",91.9%
same,"viability, T/C","second compound 0.003 µM, first compound 1 µM",82.2%
same,"viability, T/C","second compound 0.003 µM, first compound 3.16 µM",79.5%
same,"viability, T/C","second compound 0.003 µM, first compound 10 µM",78.2%
same,"viability, T/C","second compound 0.00949 µM, first compound 0.0316 µM",114%
same,"viability, T/C","second compound 0.00949 µM, first compound 0.1 µM",93%
same,"viability, T/C","second compound 0.00949 µM, first compound 0.316 µM",90%
same,"viability, T/C","second compound 0.00949 µM, first compound 1 µM",88.8%
same,"viability, T/C","second compound 0.00949 µM, first compound 3.16 µM",82.5%
same,"viability, T/C","second compound 0.00949 µM, first compound 10 µM",74.5%
same,"viability, T/C","second compound 0.03 µM, first compound 0.0316 µM",104%
same,"viability, T/C","second compound 0.03 µM, first compound 0.1 µM",111%
same,"viability, T/C","second compound 0.03 µM, first compound 0.316 µM",81.3%
same,"viability, T/C","second compound 0.03 µM, first compound 1 µM",103%
same,"viability, T/C","second compound 0.03 µM, first compound 3.16 µM",69.8%
same,"viability, T/C","second compound 0.03 µM, first compound 10 µM",88.1%
same,"viability, T/C","second compound 0.0949 µM, first compound 0.0316 µM",88.4%
same,"viability, T/C","second compound 0.0949 µM, first compound 0.1 µM",94.4%
same,"viability, T/C","second compound 0.0949 µM, first compound 0.316 µM",127%
same,"viability, T/C","second compound 0.0949 µM, first compound 1 µM",90%
same,"viability, T/C","second compound 0.0949 µM, first compound 3.16 µM",72.5%
same,"viability, T/C","second compound 0.0949 µM, first compound 10 µM",67.8%
same,"viability, T/C","second compound 0.3 µM, first compound 0.0316 µM",105%
same,"viability, T/C","second compound 0.3 µM, first compound 0.1 µM",112%
same,"viability, T/C","second compound 0.3 µM, first compound 0.316 µM",94.8%
same,"viability, T/C","second compound 0.3 µM, first compound 1 µM",92.7%
same,"viability, T/C","second compound 0.3 µM, first compound 3.16 µM",77.3%
same,"viability, T/C","second compound 0.3 µM, first compound 10 µM",80.7%
